# Patent US20240122978A1, “RETROVIRAL VECTOR FOR UNIVERAL RECEPTOR THERAPY” (Umoja BioPharma, Inc., priority 2019, published 2024)
# Entries after “also recorded” stand apart in the source; their conditions may differ.
# Test system: CAR-expressing T cells
# Experiment: Assessment of CAR expression and activation by flow cytometry
# Type: cell-based
# Conditions: FITC coated beads or plate bound FITC; FIGS. 2A-2F
# Method: Cells were transferred to individual wells of a 96-well V-bottom plate, the plate was spun at 400×g for 5 min, cells were washed with 200 μL PBS and spun again at 400×g for 5 min. Cells were incubated for 10 min at room temperature in 50 μL/well Zombie NIR Fixable Viability Dye (diluted 1:3000 in PBS). Cells were then washed with […] buffer (1×PBS+2% FBS) and the plate was spun at 400×g for 5 min. Next, 50 μL/well of surface stain in FACS buffer were added to the cells and incubated for 45 min at 4° C.
# Cells were washed with 150 μL FACS buffer and the plate was spun at 400×g for 5 min. Cells were then fixed with 100 μL/well of BD Cytofix/Cytoperm buffer for 20 min at 4° C. Cells were then washed with 100 μL BD Perm/Wash diluted 10-fold in water and the plate was spun at 400×g for 5 min. Cells were washed again with 200 μL BD Perm/Wash diluted 10-fold in water and the plate was spun again at 400×g for 5 min. 50 μL/well of intracellular stain in 1×BD Perm/Wash was added to the cells and incubated for 30 min at 4° C. Cells were washed with 150 μL, FACS buffer, the plate was spun at 400×g for 5 min and the cells were resuspended in 200 μL FACS buffer for analysis using a Beckman Coulter CytoFLEX S cytometer. As depicted in FIGS. 2A-2F, CAR-expressing T cells expand in the presence of the antigen FITC and this expansion is enhanced with rapamycin. […]
substance,measurement,value
fluorescein isothiocyanate [FITC],expansion/enrichment of CAR-expressing T cells in the presence of the antigen FITC,enriched; also recorded: enhanced expansion and activation; also recorded: expand
